Among the data in patent US9440941B2, “Substituted chroman-6-yloxy-cycloalkanes and their use as pharmaceuticals” (SANOFI, priority 2013, dated 2016) are IC50 values, retold here.

The structures appear in SMILES notation. pIC50: −log10 of the molar value. Structures can show the parent of a compound that is named as a salt.

For the assay, the target named is T1, human NCX1 (Homo sapiens, UniProt P32418).
T1 construct: expressed in transfected cells
The assay is described as follows: Inhibition of Ca2+ influx into cells (NCX1 reverse mode), FLIPR Fluo-4 assay. Type of assay: cell-based. The following applies: inhibition of NCX1 in reverse mode (Ca2+ influx into cells); read-out: NCX1rv IC50. Put shortly:
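Ca2+ influx via reverse-mode exchange was evoked with gramicidin (20 µM final) after 45 min compound exposure at 16 °C in stably transfected CHO cells. Fluo-4 signal (520 nm) was followed on FLIPR at 2 s intervals. Max–min fluorescence gave percentage inhibition, from which IC50 was calculated.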
On to `Cc1cc(CN(Cc2cc(C)n(C)n2)[C@H]2CC[C@H](Oc3ccc4c(c3)CCC(c3ccccc3)O4)CC2)nn1C` (stereo partly drawn) [compound 87, N,N-Bis(1,5-dimethylpyrazol-3-ylmethyl)-[trans-4-(2-phenylchroman-6-yloxy)]-cyclohexylamine], for which the pIC50 was 5.89.
Consider `CCC(C)CN(CC(C)CC)[C@H]1CC[C@H](Oc2ccc3c(c2)CCC(c2ccccc2)O3)CC1` (stereo partly drawn) [compound 88, N,N-Bis(2-methylbutyl)-[trans-4-(2-phenylchroman-6-yloxy)]-cyclohexylamine], for which the negative logarithm of the IC50 (pIC50) was 5.60.
To `O=C(OC1CCC(Oc2ccc3c(c2)CCC(c2ccccc2)O3)CC1)c1ccncc1F` (stereo not drawn) [compound 89, 3-Fluoro-isonicotinic acid 4-(2-phenyl-chroman-6-yloxy)-cyclohexyl ester] belongs 6.40; to `CCCC1(O)CCC(Oc2ccc3c(c2)CCC(c2ccccc2)O3)CC1` (stereo not drawn) [compound 90, 4-(2-Phenylchroman-6-yloxy)-1-propyl-cyclohexanol], 6.70; to `Cc1nc(CNC2CCC(Oc3ccc4c(c3)CCC(c3ccccc3)O4)CC2)no1` (stereo not drawn) [compound 97], 6.30.
To `CC(C)CCNC1CCC(Oc2ccc3c(c2)CCC(c2ccccc2)O3)CC1` (stereo not drawn) [compound 98] belongs 6.22.
To `O=C(NCCO)C1CCC(Oc2ccc3c(c2)CC[C@H](c2ccccc2)O3)CC1` (stereo partly drawn) [compound 99] belongs 6.52.
`CCC(C)CN(CCO)C1CCC(Oc2ccc3c(c2)CCC(c2ccccc2)O3)CC1` (stereo not drawn) [compound 100]: the pIC50 was 5.85.
In the case of `CCC(C)CNC1CCC(Oc2ccc3c(c2)CCC(c2ccccc2)O3)CC1` (stereo not drawn) [compound 101] it was 6.05; in that of `O=C(NCCO)C1CCC(Oc2ccc3c(c2)CC[C@@H](c2ccccc2)O3)CC1` (stereo partly drawn) [compound 102, N-(2-Hydroxyethyl)-4-((S)-2-phenylchroman-6-yloxy)-cyclohexanecarboxamide], 5.96; in that of `c1ccc(C2CCc3cc(OC4CCC(NCc5ccoc5)CC4)ccc3O2)cc1` (stereo not drawn) [compound 103], 6.10.
In the case of `Cc1nn(C)c(C)c1CNC1CCC(Oc2ccc3c(c2)CCC(c2ccccc2)O3)CC1` (stereo not drawn) [compound 104] it was 6.10; in that of `c1ccc(C2CCc3cc(OC4CCC(NC5CCCCC5)CC4)ccc3O2)cc1` (stereo not drawn) [compound 105], 5.96.
In the case of `CCCC(C)NC1CCC(Oc2ccc3c(c2)CCC(c2ccccc2)O3)CC1` (stereo not drawn) [compound 106] it was 6.10; in that of `CC(C)CCCNC1CCC(Oc2ccc3c(c2)CCC(c2ccccc2)O3)CC1` (stereo not drawn) [compound 107], 6.10; in that of `CCCCNC1CCC(Oc2ccc3c(c2)CCC(c2ccccc2)O3)CC1` (stereo not drawn) [compound 108], 6.22.
With `CC(C)C(C)NC1CCC(Oc2ccc3c(c2)CCC(c2ccccc2)O3)CC1` (stereo not drawn) [compound 109], the pIC50 was 6.00.
In the case of `COCC(C)NC1CCC(Oc2ccc3c(c2)CCC(c2ccccc2)O3)CC1` (stereo not drawn) [compound 110] it was 5.89; in that of `CSCCNC1CCC(Oc2ccc3c(c2)CCC(c2ccccc2)O3)CC1` (stereo not drawn) [compound 111], 6.22; in that of `CCOCCCNC1CCC(Oc2ccc3c(c2)CCC(c2ccccc2)O3)CC1` (stereo not drawn) [compound 112], 6.05.
In the case of `CCCNC1CCC(Oc2ccc3c(c2)CCC(c2ccccc2)O3)CC1` (stereo not drawn) [compound 113] it was 6.30.
In the case of `CCC(C)CCNC1CCC(Oc2ccc3c(c2)CCC(c2ccccc2)O3)CC1` (stereo not drawn) [compound 114] it was 6.15.
For `COCC(C)(C)CNC1CCC(Oc2ccc3c(c2)CCC(c2ccccc2)O3)CC1` (stereo not drawn) [compound 115], the pIC50 was 6.00.
To `c1ccc(C2CCc3cc(OC4CCC(NCCCC5CCOC5)CC4)ccc3O2)cc1` (stereo not drawn) [compound 116] belongs 6.22; to `c1ccc(C2CCc3cc(OC4CCC(NCCSC5CCCCC5)CC4)ccc3O2)cc1` (stereo not drawn) [compound 117], 5.43.
Take `CC(C)N1CCC(CNC2CCC(Oc3ccc4c(c3)CCC(c3ccccc3)O4)CC2)CC1` (stereo not drawn) [compound 118]: the pIC50 is 5.68.
In the case of `CC(C)SCCNC1CCC(Oc2ccc3c(c2)CCC(c2ccccc2)O3)CC1` (stereo not drawn) [compound 119] it was 5.96; in that of `c1ccc(C2CCc3cc(OC4CCC(NCCC5CCOCC5)CC4)ccc3O2)cc1` (stereo not drawn) [compound 120], 6.10.
In the case of `COCCCNC1CCC(Oc2ccc3c(c2)CCC(c2ccccc2)O3)CC1` (stereo not drawn) [compound 121] it was 6.15; in that of `CC(C)(C)OCCCNC1CCC(Oc2ccc3c(c2)CCC(c2ccccc2)O3)CC1` (stereo not drawn) [compound 122], 5.92.
In the case of `c1ccc(C2CCc3cc(OC4CCC(NC5CC5)CC4)ccc3O2)cc1` (stereo not drawn) [compound 123] it was 6.00; in that of `CCCC1(NC2CCC(Oc3ccc4c(c3)CCC(c3ccccc3)O4)CC2)CC1` (stereo not drawn) [compound 124], 5.62; in that of `c1ccc(C2CCc3cc(OC4CCC(NC5CCOCC5)CC4)ccc3O2)cc1` (stereo not drawn) [compound 125], 5.72.
Regarding `c1ccc(C2CCc3cc(OC4CCC(NCCCOC5CCCC5)CC4)ccc3O2)cc1` (stereo not drawn) [compound 126], the pIC50 is 5.80.
With `CC(C)(C)CCNC1CCC(Oc2ccc3c(c2)CCC(c2ccccc2)O3)CC1` (stereo not drawn) [compound 127], the pIC50 was 5.96.
Take `CC(CN(C)C)NC1CCC(Oc2ccc3c(c2)CCC(c2ccccc2)O3)CC1` (stereo not drawn) [compound 128]: the pIC50 was 5.77.
Regarding `c1ccc(C2CCc3cc(OC4CCC(NCC5CCCO5)CC4)ccc3O2)cc1` (stereo not drawn) [compound 129], the pIC50 was 6.15.
To `CC(C)OCCCNC1CCC(Oc2ccc3c(c2)CCC(c2ccccc2)O3)CC1` (stereo not drawn) [compound 134] belongs 5.96; to `O=C(C1CCC(Oc2ccc3c(c2)CCC(c2ccccc2)O3)CC1)N(CCO)CCO` (stereo not drawn) [compound 157, N,N-Bis(2-hydroxyethyl)-4-(2-phenylchroman-6-yloxy)-cyclohexanecarboxamide], 5.70; to `NCC(=O)N[C@H]1CC[C@H](Oc2ccc3c(c2)CC[C@H](c2ccccc2)O3)CC1` [compound 160, hydrochloride], 5.96.
To `CC(C)(C)CNC1CCC(Oc2ccc3c(c2)CCC(c2ccccc2)O3)CC1` (stereo not drawn) [compound 161, N-(2,2-Dimethylpropyl)-4-(2-phenylchroman-6-yloxy)-cyclohexylamine] belongs 5.89; to `CC(C)(C)CNC1CCC(Oc2ccc3c(c2)CCC(c2ccccc2)O3)CC1` (stereo not drawn) [compound 162, N-(2,2-Dimethylpropyl)-4-(2-phenylchroman-6-yloxy)-cyclohexylamine], 5.64; to `CC1(O)CCC(Oc2ccc3c(c2)CCC(c2ccccc2)O3)CC1` (stereo not drawn) [compound 163, 1-Methyl-4-(2-phenylchroman-6-yloxy)-cyclohexanol], 6.22.
Take `Cc1cccc(C)c1C1CCc2cc(OC3CCC(NCc4c(C)nn(C)c4C)CC3)ccc2O1` (stereo not drawn) [compound 164]: the negative logarithm of the IC50 (pIC50) is 5.03.
In the case of `CSC(C)CCNC1CCC(Oc2ccc3c(c2)CCC(c2c(C)cccc2C)O3)CC1` (stereo not drawn) [compound 165] it was 5.00; in that of `Cc1cccc(C)c1C1CCc2cc(OC3CCC(C(=O)NCCO)CC3)ccc2O1` (stereo not drawn) [compound 166], 5.21; in that of `Cc1cccc(C)c1C1CCc2cc(OC3CCC(C(=O)NCc4ccno4)CC3)ccc2O1` (stereo not drawn) [compound 167], 5.11.
To `Cc1nn(C)c(C)c1CNC1CCC(Oc2ccc3c(c2)CCC(c2ccccc2F)O3)CC1` (stereo not drawn) [compound 169] belongs 5.60.

What is called pIC50 is the IC50 on a negative log10 scale, so that one unit is a factor of ten.
